Reference: PubChem BioAssay (NCI)
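Abbreviation: GI50, concentration required for 50% inhibition of growth. TGI marks complete inhibition of growth.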

Columns and labels:
Assay in all cases: NCI tumour cell line growth inhibition, 384-well format; in the data active means GI50 below about 0.43 µM; inactive means the rest
MDA-MB-435 melanoma = tested on: MDA-MB-435 melanoma
SK-MEL-5 melanoma = tested on: SK-MEL-5 melanoma
IGROV1 ovarian = tested on: IGROV1 ovarian
MALME-3M melanoma = tested on: MALME-3M melanoma
HL-60(TB) leukemia = tested on: HL-60(TB) leukemia
UACC-62 melanoma = tested on: UACC-62 melanoma
OVCAR-5 ovarian = tested on: OVCAR-5 ovarian
HCC-2998 colon = tested on: HCC-2998 colon
MCF7 breast = tested on: MCF7 breast
OVCAR-3 ovarian = tested on: OVCAR-3 ovarian
HOP-92 NSCLC = tested on: HOP-92 NSCLC
HCT-116 colon = tested on: HCT-116 colon
SF-539 CNS = tested on: SF-539 CNS
TK-10 renal = tested on: TK-10 renal
BT-549 breast = tested on: BT-549 breast
U251 glioblastoma = tested on: U251 glioblastoma
NCI-H23 lung = tested on: NCI-H23 lung
RXF 393 renal = tested on: RXF 393 renal
SK-MEL-28 melanoma = tested on: SK-MEL-28 melanoma
MDA-MB-231 breast = tested on: MDA-MB-231 breast
A549 NSCLC = tested on: A549 NSCLC
K-562 leukemia = tested on: K-562 leukemia
OVCAR-4 ovarian = tested on: OVCAR-4 ovarian
HOP-62 NSCLC = tested on: HOP-62 NSCLC
NCI-H522 lung = tested on: NCI-H522 lung
MOLT-4 leukemia = tested on: MOLT-4 leukemia
CCRF-CEM leukemia = tested on: CCRF-CEM leukemia
UACC-257 melanoma = tested on: UACC-257 melanoma
SN12C renal = tested on: SN12C renal
MDA-MB-468 breast = tested on: MDA-MB-468 breast
SF-295 CNS = tested on: SF-295 CNS
SK-MEL-2 melanoma = tested on: SK-MEL-2 melanoma
A498 renal = tested on: A498 renal
SF-268 CNS = tested on: SF-268 CNS
EKVX NSCLC = tested on: EKVX NSCLC
DU-145 prostate = tested on: DU-145 prostate
SW-620 colon = tested on: SW-620 colon
HCT-15 colon = tested on: HCT-15 colon
HT29 colon = tested on: HT29 colon
NCI/ADR-RES ovarian = tested on: NCI/ADR-RES ovarian
SR leukemia = tested on: SR leukemia
HS 578T breast = tested on: HS 578T breast
UO-31 renal = tested on: UO-31 renal
LOX IMVI melanoma = tested on: LOX IMVI melanoma
T-47D breast = tested on: T-47D breast
NCI-H226 lung = tested on: NCI-H226 lung
KM12 colon = tested on: KM12 colon
SK-OV-3 ovarian = tested on: SK-OV-3 ovarian
SNB-19 CNS = tested on: SNB-19 CNS
RPMI-8226 leukemia = tested on: RPMI-8226 leukemia
ACHN renal = tested on: ACHN renal
M14 melanoma = tested on: M14 melanoma
CAKI-1 renal = tested on: CAKI-1 renal
786-0 renal = tested on: 786-0 renal
PC-3 prostate = tested on: PC-3 prostate
NCI-H322M lung = tested on: NCI-H322M lung
COLO 205 colon = tested on: COLO 205 colon
NCI-H460 NSCLC = tested on: NCI-H460 NSCLC
SNB-75 CNS = tested on: SNB-75 CNS

N[C@H](CCC(=O)N[C@@H](Cc1c[nH]c2ccccc12)C(=O)O)C(=O)O
inactive: GI50 (MDA-MB-435 melanoma) > 100 µM | GI50 (SK-MEL-5 melanoma) > 100 µM | GI50 (IGROV1 ovarian) > 100 µM | GI50 (MALME-3M melanoma) > 100 µM | GI50 (HL-60(TB) leukemia) > 100 µM | GI50 (UACC-62 melanoma) > 100 µM | GI50 (OVCAR-5 ovarian) > 100 µM | GI50 (HCC-2998 colon) > 100 µM | GI50 (MCF7 breast) > 100 µM | GI50 (OVCAR-3 ovarian) > 100 µM | GI50 (HOP-92 NSCLC) > 100 µM | GI50 (HCT-116 colon) > 100 µM | GI50 (SF-539 CNS) > 100 µM | GI50 (TK-10 renal) > 100 µM | GI50 (BT-549 breast) > 100 µM | GI50 (U251 glioblastoma) > 100 µM | GI50 (NCI-H23 lung) > 100 µM | GI50 (RXF 393 renal) > 100 µM | GI50 (SK-MEL-28 melanoma) > 100 µM | GI50 (MDA-MB-231 breast) > 100 µM | GI50 (A549 NSCLC) > 100 µM | GI50 (K-562 leukemia) > 100 µM | GI50 (OVCAR-4 ovarian) > 100 µM | GI50 (HOP-62 NSCLC) > 100 µM | GI50 (NCI-H522 lung) > 100 µM | GI50 (MOLT-4 leukemia) > 100 µM | GI50 (CCRF-CEM leukemia) > 100 µM | GI50 (UACC-257 melanoma) > 100 µM | GI50 (SN12C renal) > 100 µM | GI50 (MDA-MB-468 breast) > 100 µM | GI50 (SF-295 CNS) > 100 µM | GI50 (SK-MEL-2 melanoma) > 100 µM | GI50 (A498 renal) > 100 µM | GI50 (SF-268 CNS) > 100 µM | GI50 (EKVX NSCLC) > 100 µM | GI50 (DU-145 prostate) > 100 µM | GI50 (SW-620 colon) > 100 µM | GI50 (HCT-15 colon) > 100 µM | GI50 (HT29 colon) > 100 µM | GI50 (NCI/ADR-RES ovarian) > 100 µM | GI50 (SR leukemia) > 100 µM | GI50 (HS 578T breast) > 100 µM | GI50 (UO-31 renal) > 100 µM | GI50 (LOX IMVI melanoma) > 100 µM | GI50 (T-47D breast) > 100 µM | GI50 (NCI-H226 lung) > 100 µM | GI50 (KM12 colon) > 100 µM | GI50 (SK-OV-3 ovarian) > 100 µM | GI50 (SNB-19 CNS) > 100 µM | GI50 (RPMI-8226 leukemia) > 100 µM | GI50 (ACHN renal) > 100 µM | GI50 (M14 melanoma) > 100 µM | GI50 (CAKI-1 renal) > 100 µM | GI50 ([…]-0 renal) > 100 µM | GI50 (PC-3 prostate) > 100 µM | GI50 (NCI-H322M lung) > 100 µM | GI50 (COLO 205 colon) > 100 µM | GI50 (NCI-H460 NSCLC) > 100 µM | GI50 (SNB-75 CNS) > 100 µM
> 100 µM: TGI (MDA-MB-435 melanoma) | TGI (SK-MEL-5 melanoma) | TGI (IGROV1 ovarian) | TGI (MALME-3M melanoma) | TGI (HL-60(TB) leukemia) | TGI (UACC-62 melanoma) | TGI (OVCAR-5 ovarian) | TGI (HCC-2998 colon) | TGI (MCF7 breast) | TGI (OVCAR-3 ovarian) | TGI (HOP-92 NSCLC) | TGI (HCT-116 colon) | TGI (SF-539 CNS) | TGI (TK-10 renal) | TGI (BT-549 breast) | TGI (U251 glioblastoma) | TGI (NCI-H23 lung) | TGI (RXF 393 renal) | TGI (SK-MEL-28 melanoma) | TGI (MDA-MB-231 breast) | TGI (A549 NSCLC) | TGI (K-562 leukemia) | TGI (OVCAR-4 ovarian) | TGI (HOP-62 NSCLC) | TGI (NCI-H522 lung) | TGI (MOLT-4 leukemia) | TGI (CCRF-CEM leukemia) | TGI (UACC-257 melanoma) | TGI (SN12C renal) | TGI (MDA-MB-468 breast) | TGI (SF-295 CNS) | TGI (SK-MEL-2 melanoma) | TGI (A498 renal) | TGI (SF-268 CNS) | TGI (EKVX NSCLC) | TGI (DU-145 prostate) | TGI (SW-620 colon) | TGI (HCT-15 colon) | TGI (HT29 colon) | TGI (NCI/ADR-RES ovarian) | TGI (SR leukemia) | TGI (HS 578T breast) | TGI (UO-31 renal) | TGI (LOX IMVI melanoma) | TGI (T-47D breast) | TGI (NCI-H226 lung) | TGI (KM12 colon) | TGI (SK-OV-3 ovarian) | TGI (SNB-19 CNS) | TGI (RPMI-8226 leukemia) | TGI (ACHN renal) | TGI (M14 melanoma) | TGI (CAKI-1 renal) | TGI (786-0 renal) | TGI (PC-3 prostate) | TGI (NCI-H322M lung) | TGI (COLO 205 colon) | TGI (NCI-H460 NSCLC) | TGI (SNB-75 CNS)
